Experimental data published in the supplement of paper PMC10307832.

Legend:
Experiment in all cases: relative viability (nuclei count vs DMSO), 5 days (fraction); higher = more cells survive
Carboplatin + Dasatinib = compound: C1CC(C1)(C(=O)O)C(=O)O.[NH2-].[NH2-].[Pt+2] [Carboplatin] + Cc1nc(Nc2ncc(C(=O)Nc3c(C)cccc3Cl)s2)cc(N2CCN(CCO)CC2)n1 [Dasatinib] (partner 0.075 µM)
How it was run: (§1)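 After 5 days of treatment, lung cancer cells in 1536-well plates were fixed and stained in a single step (final 0.05% Triton X-100, 1% formaldehyde, 1 ug/ml Hoechst) and their nuclei counted on 4× images. Treatment had been applied by pin tool the day after seeding as one drug alone or as a fixed anchor-drug dose with five library-drug doses (not always all listed) in √10 steps. Relative viability is the nuclei count of treated wells divided by that of vehicle wells, and values are medians of duplicate plates.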

Carboplatin + Pemetrexed = compound: C1CC(C1)(C(=O)O)C(=O)O.[NH2-].[NH2-].[Pt+2] [Carboplatin] + Nc1nc2[nH]cc(CCc3ccc(C(=O)N[C@@H](CCC(=O)O)C(=O)O)cc3)c2c(=O)[nH]1 [Pemetrexed] (partner 0.2 µM)
How it was run: as §1

GSK126 + Linsitinib = compound: CC[C@H](C)N1C=C(C2=C(C=C(C=C21)C3=CN=C(C=C3)N4CCNCC4)C(=O)NCC5=C(C=C(NC5=O)C)C)C [GSK126] + C[C@]1(O)C[C@@H](c2nc(-c3ccc4ccc(-c5ccccc5)nc4c3)c3c(N)nccn32)C1 [Linsitinib] (partner 1 µM)
How it was run: as §1

MLN4924 + Lapatinib = compound: NS(=O)(=O)OC[C@@H]1C[C@@H](n2ccc3c(N[C@H]4CCc5ccccc54)ncnc32)C[C@@H]1O [MLN4924] + CS(=O)(=O)CCNCc1ccc(-c2ccc3ncnc(Nc4ccc(OCc5cccc(F)c5)c(Cl)c4)c3c2)o1 [Lapatinib] (partner 2 µM)
How it was run: as §1

Question: Which results are given for UMC-11?
Answer: relative viability (Carboplatin + Dasatinib; first compound 0.08 µM): 0.515; relative viability (Carboplatin + Dasatinib; first compound 0.253 µM): 0.501; relative viability (Carboplatin + Dasatinib; first compound 0.8 µM): 0.461; relative viability (Carboplatin + Dasatinib; first compound 2.53 µM): 0.502; relative viability (Carboplatin + Dasatinib; first compound 8 µM): 0.491; relative viability (Carboplatin + Pemetrexed; first compound 0.08 µM): 0.853; relative viability (Carboplatin + Pemetrexed; first compound 0.253 µM): 0.738; relative viability (Carboplatin + Pemetrexed; first compound 0.8 µM): 0.802; relative viability (Carboplatin + Pemetrexed; first compound 2.53 µM): 0.689; relative viability (Carboplatin + Pemetrexed; first compound 8 µM): 0.62; relative viability (GSK126 + Linsitinib; first compound 0.08 µM): 1.14; relative viability (GSK126 + Linsitinib; first compound 0.253 µM): 0.978; relative viability (GSK126 + Linsitinib; first compound 0.8 µM): 1.04; relative viability (GSK126 + Linsitinib; first compound 2.53 µM): 1.02; relative viability (GSK126 + Linsitinib; first compound 8 µM): 1.15; relative viability (MLN4924 + Lapatinib; first compound 0.04 µM): 0.39; relative viability (MLN4924 + Lapatinib; first compound 0.1265 µM): 0.383; relative viability (MLN4924 + Lapatinib; first compound 0.4 µM): 0.271; relative viability (MLN4924 + Lapatinib; first compound 1.265 µM): 0.122; relative viability (MLN4924 + Lapatinib; first compound 4 µM): 0.143
